Reference: patent US8338565B2, “Macrocyclic compounds for inhibition of tumor necrosis factor alpha” (Ensemble Therapeutics Corporation, priority 2008, dated 2012)
pIC50: −log10 of the molar value. Numbered stars: 1 amine (or outer) side, 2 acyl side, 3 side chain; on linkers, the order of the positions; unused ones are H or OH. Bridge positions count the residues as written; N and C are the ends. Square brackets hold non-standard residues; d marks the D form. Peptide text beside a SMILES is read from it. Phe(4-COOH) = N[C@@H](Cc1ccc(C(=O)O)cc1)C(=O)O; Phe(2,4-Cl2) = N[C@@H](Cc1ccc(Cl)cc1Cl)C(=O)O; Bip = N[C@@H](Cc1ccc(-c2ccccc2)cc1)C(=O)O; dPhe(4-NH2) = Nc1ccc(C[C@@H](N)C(=O)O)cc1; Phe(4-Br) = N[C@@H](Cc1ccc(Br)cc1)C(=O)O; Phe(4-NH2) = Nc1ccc(C[C@H](N)C(=O)O)cc1; d(hPhe) = N[C@H](CCc1ccccc1)C(=O)O; d2Thi = N[C@H](Cc1cccs1)C(=O)O; Suc = O=C(CCC(=O)[*:2])[*:1]; Ac3c = NC1(C(=O)O)CC1; Aib = CC(C)(N)C(=O)O; Ava = NCCCCC(=O)O; GABA = NCCCC(=O)O; βAla = NCCC(=O)O

Molecular target: T1, TNFα / TNFα receptor (TNFα R1/Fc) (Homo sapiens, UniProt P01375)
T1 construct: purchased R&D Systems
T1 sequence (P01375 77-233 limits assumed, species assumed): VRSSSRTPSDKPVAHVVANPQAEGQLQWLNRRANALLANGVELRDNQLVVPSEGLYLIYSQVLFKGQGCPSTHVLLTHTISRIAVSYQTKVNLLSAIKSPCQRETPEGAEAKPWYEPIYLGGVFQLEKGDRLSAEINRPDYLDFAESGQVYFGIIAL
Experiment: Inhibition of binding of TNFα to the TNFα receptor (plate ELISA competition)
Settings: Table 2; read-out: Activity (IC50, inhibition of TNFα binding to TNFα R1/Fc)
How it was run: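 Compound dilutions were preincubated 30 min at RT with 8.33 nM TNFα R1/Fc in PBST with 2% DMSO, then added to wells coated with 15 nM TNFα for 30 min. Bound receptor was detected with HRP anti-human Fc and TMB, read as A450.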

| Compound | pIC50 |
| --- | --- |
| O=C1CCNC(=O)c2ccc(cc2)C[C@@H](C(=O)N[C@@H](Cc2ccccc2)C(=O)O)NC(=O)[C@@H](Cc2ccccc2)NC(=O)[C@H](Cc2ccc(-c3ccccc3)cc2)NC(=O)[C@@H](CCc2ccccc2)N1 [Compound 422] ([βAla][d(hPhe)][Bip][dF][Phe(4-COOH)]F-OH; lactam N-5) | > 5.00 |
| O=C1CCNC(=O)c2ccc(cc2)C[C@@H](C(=O)N[C@H](Cc2ccccc2)C(=O)O)NC(=O)[C@@H](Cc2ccccc2)NC(=O)[C@H](Cc2ccc(-c3ccccc3)cc2)NC(=O)[C@@H](CCc2ccccc2)N1 [Compound 423] ([βAla][d(hPhe)][Bip][dF][Phe(4-COOH)][dF]-OH; lactam N-5) | > 5.00 |
| O=C(O)CCNC(=O)[C@@H]1Cc2ccc(cc2)C(=O)N[C@H](CCc2ccccc2)C(=O)N[C@@H](Cc2ccc(-c3ccccc3)cc2)C(=O)N[C@H](Cc2ccccc2)C(=O)N1 [Compound 424] ([d(hPhe)][Bip][dF][Phe(4-COOH)][βAla]-OH; lactam N-4) | > 5.00 |
| O=C(O)CCCNC(=O)[C@@H]1Cc2ccc(cc2)C(=O)N[C@H](CCc2ccccc2)C(=O)N[C@@H](Cc2ccc(-c3ccccc3)cc2)C(=O)N[C@H](Cc2ccccc2)C(=O)N1 [Compound 425] ([d(hPhe)][Bip][dF][Phe(4-COOH)][GABA]-OH; lactam N-4) | 4.00 to 4.52 |
| O=C1COc2ccc(cc2)C[C@@H](C(=O)O)NC(=O)[C@H](Cc2ccc(O)cc2)NC(=O)[C@@H](Cc2ccc(-c3ccccc3)cc2)NC(=O)[C@H](Cc2cccs2)N1 [Compound 427] | < 4.00 |
| O=C1CCC(=O)N[C@H](CCc2ccccc2)C(=O)N[C@@H](Cc2ccc(Br)cc2)C(=O)N[C@H](Cc2ccccc2)C(=O)N[C@@H](C(=O)N[C@@H](Cc2ccccc2)C(=O)O)Cc2ccc(cc2)N1 [Compound 440] ([d(hPhe)][Phe(4-Br)][dF][dPhe(4-NH2)]F-OH; linker N-4 via Suc) | 4.52 to 5.00 |
| O=C1CCC(=O)N[C@H](CCc2ccccc2)C(=O)N[C@@H](Cc2ccc(Cl)cc2Cl)C(=O)N[C@H](Cc2ccccc2)C(=O)N[C@@H](C(=O)N[C@@H](Cc2ccccc2)C(=O)O)Cc2ccc(cc2)N1 [Compound 441] ([d(hPhe)][Phe(2,4-Cl2)][dF][dPhe(4-NH2)]F-OH; linker N-4 via Suc) | 4.52 to 5.00 |
| C[C@@H](NC(=O)[C@@H]1Cc2ccc(cc2)NC(=O)CCC(=O)N[C@H](Cc2cccs2)C(=O)N[C@@H](Cc2ccc(-c3ccccc3)cc2)C(=O)N[C@H](CCc2ccccc2)C(=O)N1)C(=O)O [Compound 446] ([d2Thi][Bip][d(hPhe)][Phe(4-NH2)][dA]-OH; linker N-4 via Suc) | < 4.00 |
| C[C@H](NC(=O)[C@@H]1Cc2ccc(cc2)NC(=O)CCC(=O)N[C@H](Cc2cccs2)C(=O)N[C@@H](Cc2ccc(-c3ccccc3)cc2)C(=O)N[C@H](CCc2ccccc2)C(=O)N1)C(=O)O [Compound 447] ([d2Thi][Bip][d(hPhe)][Phe(4-NH2)]A-OH; linker N-4 via Suc) | < 4.00 |
| O=C(O)CCNC(=O)[C@@H]1Cc2ccc(cc2)NC(=O)CCC(=O)N[C@H](Cc2cccs2)C(=O)N[C@@H](Cc2ccc(-c3ccccc3)cc2)C(=O)N[C@H](CCc2ccccc2)C(=O)N1 [Compound 448] ([d2Thi][Bip][d(hPhe)][Phe(4-NH2)][βAla]-OH; linker N-4 via Suc) | 4.52 to 5.00 |
| O=C(O)CCCNC(=O)[C@@H]1Cc2ccc(cc2)NC(=O)CCC(=O)N[C@H](Cc2cccs2)C(=O)N[C@@H](Cc2ccc(-c3ccccc3)cc2)C(=O)N[C@H](CCc2ccccc2)C(=O)N1 [Compound 449] ([d2Thi][Bip][d(hPhe)][Phe(4-NH2)][GABA]-OH; linker N-4 via Suc) | < 4.00 |
| O=C(O)CCCCNC(=O)[C@@H]1Cc2ccc(cc2)NC(=O)CCC(=O)N[C@H](Cc2cccs2)C(=O)N[C@@H](Cc2ccc(-c3ccccc3)cc2)C(=O)N[C@H](CCc2ccccc2)C(=O)N1 [Compound 450] ([d2Thi][Bip][d(hPhe)][Phe(4-NH2)][Ava]-OH; linker N-4 via Suc) | 4.00 to 4.52 |
| O=C1CCC(=O)N[C@H](Cc2cccs2)C(=O)N[C@@H](Cc2ccc(-c3ccccc3)cc2)C(=O)N[C@H](CCc2ccccc2)C(=O)N[C@H](C(=O)NC2(C(=O)O)CC2)Cc2ccc(cc2)N1 [Compound 451] ([d2Thi][Bip][d(hPhe)][Phe(4-NH2)][Ac3c]-OH; linker N-4 via Suc) | 4.00 to 4.52 |
| CC(C)(NC(=O)[C@@H]1Cc2ccc(cc2)NC(=O)CCC(=O)N[C@H](Cc2cccs2)C(=O)N[C@@H](Cc2ccc(-c3ccccc3)cc2)C(=O)N[C@H](CCc2ccccc2)C(=O)N1)C(=O)O [Compound 452] ([d2Thi][Bip][d(hPhe)][Phe(4-NH2)][Aib]-OH; linker N-4 via Suc) | < 4.00 |
| O=C(O)CNC(=O)[C@@H]1Cc2ccc(cc2)NC(=O)CCC(=O)N[C@H](Cc2cccs2)C(=O)N[C@@H](Cc2ccc(-c3ccccc3)cc2)C(=O)N[C@H](CCc2ccccc2)C(=O)N1 [Compound 453] ([d2Thi][Bip][d(hPhe)][Phe(4-NH2)]G-OH; linker N-4 via Suc) | < 4.00 |
| O=C1CCC(=O)N[C@H](Cc2ccccc2)C(=O)N[C@@H](Cc2ccc(-c3ccccc3)cc2)C(=O)N[C@H](CCc2ccccc2)C(=O)N[C@H](C(=O)O)Cc2ccc(cc2)N1 [Compound 454] ([dF][Bip][d(hPhe)][Phe(4-NH2)]-OH; linker N-4 via Suc) | 4.52 to 5.00 |
| O=C1CCC(=O)N[C@H](Cc2ccccc2)C(=O)N[C@@H](Cc2ccc(-c3ccccc3)cc2)C(=O)N[C@H](CCc2ccccc2)C(=O)N[C@H](C(=O)N[C@H](Cc2ccccc2)C(=O)O)Cc2ccc(cc2)N1 [Compound 455] ([dF][Bip][d(hPhe)][Phe(4-NH2)][dF]-OH; linker N-4 via Suc) | < 4.00 |

Continued, values first:

| pIC50 | Compound |
| --- | --- |
| > 5.00 | O=C(O)[C@H](Cc1ccccc1)NC(=O)[C@H]1Cc2ccc(cc2)NC(=O)[C@H](O)[C@@H](O)C(=O)N[C@H](Cc2cccs2)C(=O)N[C@@H](Cc2ccc(-c3ccccc3)cc2)C(=O)N[C@H](CCc2ccccc2)C(=O)N1 [Compound 429] |
| 4.52 to 5.00 | O=C(O)[C@H](Cc1ccccc1)NC(=O)[C@H]1Cc2ccc(cc2)NC(=O)[C@H](O)[C@@H](O)C(=O)N[C@H](Cc2cccs2)C(=O)N[C@@H](Cc2ccc(-c3ccccc3)cc2)C(=O)N[C@H](Cc2ccccc2)C(=O)N1 [Compound 430] |
| < 4.00 | O=C(O)[C@H](Cc1ccccc1)NC(=O)[C@H]1Cc2ccc(cc2)NC(=O)[C@H](O)[C@@H](O)C(=O)N[C@H](Cc2cccs2)C(=O)N[C@@H](Cc2ccc(Br)cc2)C(=O)N[C@H](Cc2ccccc2)C(=O)N1 [Compound 431] |
| > 5.00 | O=C(O)[C@H](Cc1ccccc1)NC(=O)[C@H]1Cc2ccc(cc2)NC(=O)[C@H](O)[C@@H](O)C(=O)N[C@@H](Cc2cccs2)C(=O)N[C@H](Cc2ccc(-c3ccccc3)cc2)C(=O)N[C@@H](CCc2ccccc2)C(=O)N1 [Compound 432] |
| < 4.00 | O=C(O)[C@H](Cc1ccccc1)NC(=O)[C@@H]1Cc2ccc(cc2)NC(=O)[C@H](O)[C@@H](O)C(=O)N[C@@H](Cc2cccs2)C(=O)N[C@H](Cc2ccc(-c3ccccc3)cc2)C(=O)N[C@@H](CCc2ccccc2)C(=O)N1 [Compound 433] |
| > 5.00 | O=C(O)[C@H](Cc1ccccc1)NC(=O)[C@H]1Cc2ccc(cc2)NC(=O)[C@H](O)[C@@H](O)C(=O)N[C@@H](Cc2cccs2)C(=O)N[C@H](Cc2ccc(-c3ccccc3)cc2)C(=O)N[C@@H](Cc2ccccc2)C(=O)N1 [Compound 434] |
| > 5.00 | O=C(O)[C@H](Cc1ccccc1)NC(=O)[C@@H]1Cc2ccc(cc2)NC(=O)[C@H](O)[C@@H](O)C(=O)N[C@@H](Cc2cccs2)C(=O)N[C@H](Cc2ccc(-c3ccccc3)cc2)C(=O)N[C@@H](Cc2ccccc2)C(=O)N1 [Compound 435] |
| > 5.00 | O=C(O)[C@H](Cc1ccccc1)NC(=O)[C@H]1Cc2ccc(cc2)NC(=O)[C@H](O)[C@@H](O)C(=O)N[C@@H](Cc2cccs2)C(=O)N[C@H](Cc2ccc(Br)cc2)C(=O)N[C@@H](CCc2ccccc2)C(=O)N1 [Compound 436] |
| 4.52 to 5.00 | O=C(O)[C@H](Cc1ccccc1)NC(=O)[C@@H]1Cc2ccc(cc2)NC(=O)[C@H](O)[C@@H](O)C(=O)N[C@@H](Cc2cccs2)C(=O)N[C@H](Cc2ccc(Br)cc2)C(=O)N[C@@H](CCc2ccccc2)C(=O)N1 [Compound 437] |
| > 5.00 | O=C(O)[C@H](Cc1ccccc1)NC(=O)[C@H]1Cc2ccc(cc2)NC(=O)[C@H](O)[C@@H](O)C(=O)N[C@@H](Cc2cccs2)C(=O)N[C@H](Cc2ccc(Br)cc2)C(=O)N[C@@H](Cc2ccccc2)C(=O)N1 [Compound 438] |
| 4.00 to 4.52 | O=C(O)[C@H](Cc1ccccc1)NC(=O)[C@@H]1Cc2ccc(cc2)NC(=O)[C@H](O)[C@@H](O)C(=O)N[C@@H](Cc2cccs2)C(=O)N[C@H](Cc2ccc(Br)cc2)C(=O)N[C@@H](Cc2ccccc2)C(=O)N1 [Compound 439] |
| 4.52 to 5.00 | O=C(O)[C@H](Cc1ccccc1)NC(=O)[C@@H]1Cc2ccc(cc2)NC(=O)[C@H](O)[C@@H](O)C(=O)N[C@H](Cc2cccs2)C(=O)N[C@@H](Cc2ccc(-c3ccc(Cl)cc3)cc2)C(=O)N[C@H](Cc2ccccc2)C(=O)N1 [Compound 443] |
| 4.00 to 4.52 | O=C1CCC(=O)N[C@H](Cc2cccs2)C(=O)N[C@@H](Cc2ccc(-c3ccccc3)cc2)C(=O)N[C@H](CCc2ccccc2)C(=O)N[C@H](C(=O)N[C@H](Cc2ccccc2)C(=O)O)Cc2ccc(cc2)N1 [Compound 444] ([d2Thi][Bip][d(hPhe)][Phe(4-NH2)][dF]-OH; linker N-4 via Suc) |
| 4.52 to 5.00 | O=C1CCC(=O)N[C@H](Cc2cccs2)C(=O)N[C@@H](Cc2ccc(-c3ccccc3)cc2)C(=O)N[C@H](CCc2ccccc2)C(=O)N[C@H](C(=O)N[C@@H](Cc2ccccc2)C(=O)O)Cc2ccc(cc2)N1 [Compound 445] ([d2Thi][Bip][d(hPhe)][Phe(4-NH2)]F-OH; linker N-4 via Suc) |
| < 4.00 | O=C1CCC(=O)N[C@H](Cc2ccccc2)C(=O)N[C@@H](Cc2ccc(-c3ccccc3)cc2)C(=O)N[C@H](CCc2ccccc2)C(=O)N[C@H](C(=O)N[C@@H](Cc2ccccc2)C(=O)O)Cc2ccc(cc2)N1 [Compound 456] ([dF][Bip][d(hPhe)][Phe(4-NH2)]F-OH; linker N-4 via Suc) |
